# According to US11459570B2, “Transgenic mouse expressing amyloid precursor protein that has olfactory neuron degeneration” (The General Hospital Corporation, priority 2014, dated 2022):
# How the values were obtained:
# [1] = test system: neuronal differentiated ReNcell VM cells; assay: Viability of differentiated ReNcell VM neurons transfected with poly IC (Celltiter-Glo); type: cell-based, human; settings: escalating doses of poly IC, after 2 days (48 hours) in culture
# Protocol: (§1) FIGS. 12A-G. dsRNA induces a Type I interferon response and is sufficient to induced neurodegeneration in human neurons. A-E) Representative transmitted light images of differentiated ReNVM neurons transfected with increasing doses of PolyIC, a dsRNA mimetic, showing a dose-dependent loss of neurons after 48 hours.
# (§2) Cytoplasmic dsRNA is sensed by three different proteins, PKR, MDA5, and RIG-I, that are components of the innate immune system. Engagement of each protein by dsRNA induces interferon signaling and neurodegeneration. […] To determine if cytoplasmic dsRNA was sufficient to mediate neurodegeneration in a human neurons, we transfected neuronal differentiated ReNcell VM cells, a human neural cell line derived from ventral mesencephalon, with escalating doses of poly IC (which mimics a GC dinucleotide repeat).
# cortical neurons = settings: rats; cited from earlier work
# OSNs = settings: mice, intranasal instillation; cited from earlier work
# MDA5 and PKR = assay: Western blots of type I interferon-stimulated genes in differentiated ReNVM cells after PolyIC transfection; type: cell-based, human; settings: western blot, 24 hour post transfection with PolyIC
# Protocol: as §1, §2
substance,measurement,setting,value
polyinosinic-polycytidylic acid [poly IC],viability of ReNVM neurons relative to mock-transfected neurons,[1],dose-dependent reduction in their viability
same,viability of ReNVM neurons relative to mock-transfected neurons,[1]; listed as PolyIC,dose-dependent loss in cell viability
same,degeneration of cortical neurons,cortical neurons,causes degeneration
same,degeneration of OSNs,OSNs,causes degeneration
same,"protein expression of type I interferon-stimulated genes (MDA5, PKR)",MDA5 and PKR,massive induction of MDA5 and PKR
same,"protein expression of type I interferon-stimulated genes (MDA5, PKR)",MDA5 and PKR; listed as PolyIC,elevated protein expression of type I interferon-stimulated genes
